The source of these data is PubChem BioAssay (NCI).

Some test systems named below: RPMI-8226 leukemia; HL-60(TB) leukemia; U251 CNS; SF-268 CNS; EKVX NSCLC; NCI-H460 lung; A549 NSCLC; KM12 colon; CAKI-1 renal.
Assay in all cases: NCI anticancer screen, dose series, 48 h

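Dose response: 5 concentrations. Exposure: 48 h. Format: 96-well plates. Endpoint: linear interpolation; highest concentration if not reached. GI50: concentration for 50% inhibition of growth. TGI: total growth inhibition.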 Some results are limits rather than exact numbers.

Consider `c1ccc(COc2cccc3ccc[n+](Cc4ccccc4)c23)cc1`, for which the TGI in the assay on RPMI-8226 leukemia is 14.2 µM; with HL-60(TB) leukemia, 5.75 µM; in the assay with U251 CNS, greater than 100 µM; in the assay on SF-268 CNS, greater than 100 µM; in the assay with EKVX NSCLC, greater than 100 µM; with NCI-H460 lung, 35.7 µM. For the same compound, the TGI is greater than 100 µM in the assay on A549 NSCLC and 15.7 µM in the assay with KM12 colon.

For `COc1cc2c3c(n(C)c(=O)c2cc1OC)-c1cc2c(cc1/C3=C\CCCN)OCO2`, the GI50 in the assay on U251 CNS is 1.66 µM; in the assay with SF-268 CNS, 4.93 µM; with EKVX NSCLC, 17.7 µM; in the assay with NCI-H460 lung, 2.65 µM; in the assay with CAKI-1 renal, 1.99 µM; in the assay on A549 NSCLC it was 4.3 µM. In addition, in the assay on KM12 colon, the GI50 is 11 µM. Further, the TGI in the assay with U251 CNS is 10.6 µM; in the assay with SF-268 CNS it was 66.9 µM; with EKVX NSCLC, greater than 100 µM; in the assay on NCI-H460 lung, greater than 100 µM; in the assay with CAKI-1 renal, 8.62 µM; with A549 NSCLC it was greater than 100 µM. Besides, the TGI with KM12 colon is 84.8 µM.

Consider `Cc1ccc(NC(=O)c2cc3cc(N=Nc4ccccc4C(=O)O)ccc3oc2=O)cc1`, for which the TGI with RPMI-8226 leukemia is greater than 100 µM; in the assay with HL-60(TB) leukemia it was 69.4 µM; in the assay with U251 CNS it was greater than 100 µM; with EKVX NSCLC, greater than 100 µM; with NCI-H460 lung it was greater than 100 µM; in the assay on A549 NSCLC it was greater than 100 µM. For the same compound, in the assay with KM12 colon, the TGI is greater than 100 µM.

In the case of `Cc1ccc(S(=O)(=O)Nc2ccccc2C(=O)c2ccc(C)c(C)c2)cc1`, the TGI in the assay on RPMI-8226 leukemia, with U251 CNS, in the assay on SF-268 CNS, with EKVX NSCLC, with NCI-H460 lung and in the assay with CAKI-1 renal was greater than 100 µM throughout. Further, the TGI with A549 NSCLC and with KM12 colon was greater than 100 µM each time.

With `ClCc1cccc(Cn2cnc3ncnc(Cl)c32)c1`, the GI50 with RPMI-8226 leukemia was 13.7 µM; with U251 CNS, 1.97 µM; in the assay with SF-268 CNS it was 1.66 µM; in the assay with EKVX NSCLC, 13.7 µM; in the assay with NCI-H460 lung, 2.09 µM; with CAKI-1 renal, 2.12 µM. The figures for the GI50 in the assay on A549 NSCLC and in the assay on KM12 colon were 17.2 µM and 1.85 µM, respectively. For the same compound, the TGI is 34.9 µM with RPMI-8226 leukemia; 3.95 µM with U251 CNS; 3.5 µM in the assay with SF-268 CNS; 29.7 µM in the assay with EKVX NSCLC; 4.45 µM in the assay on NCI-H460 lung; 4.04 µM with CAKI-1 renal. For the same compound, the values for the TGI in the assay on A549 NSCLC and in the assay on KM12 colon were 39.6 µM and 3.32 µM, respectively.

For the compound `COC(OC)C(C)CC(=O)N(C)C` (stereo not given), the TGI with RPMI-8226 leukemia, in the assay on HL-60(TB) leukemia, with U251 CNS, with SF-268 CNS, with EKVX NSCLC and in the assay with NCI-H460 lung was greater than 100 µM in each case. The TGI with A549 NSCLC and in the assay with KM12 colon was greater than 100 µM each time.

With `CCN1c2ccccc2C(C(SC)S(=O)(=O)c2ccc(C)cc2)c2c1[nH]c(=O)n(C)c2=O` (stereo not given), the TGI in the assay on RPMI-8226 leukemia, in the assay with HL-60(TB) leukemia, with U251 CNS, in the assay on SF-268 CNS, in the assay on EKVX NSCLC and in the assay on CAKI-1 renal was greater than 100 µM each time. Also, the TGI in the assay with A549 NSCLC and in the assay with KM12 colon was greater than 100 µM in each case.

For the compound `OCC#Cc1ccccc1C#Cc1ccccc1`, the GI50 in the assay with RPMI-8226 leukemia was 3 µM; in the assay with U251 CNS it was 11.7 µM; in the assay on SF-268 CNS it was 17.1 µM; in the assay on EKVX NSCLC, 17.6 µM; with NCI-H460 lung, 18.2 µM; in the assay with CAKI-1 renal, 12.2 µM. Further, the GI50 was 16.5 µM in the assay with A549 NSCLC and 10.8 µM with KM12 colon. The TGI in the assay with RPMI-8226 leukemia was found to be 11.8 µM; in the assay with U251 CNS it was 25.2 µM; in the assay with SF-268 CNS it was 35.3 µM; in the assay on EKVX NSCLC, 34 µM; with NCI-H460 lung it was 35.2 µM; with CAKI-1 renal, 25.5 µM. The TGI in the assay with A549 NSCLC was found to be 45 µM; with KM12 colon, 22.9 µM.

Regarding `CCOC(=O)NC(=O)c1cn(CCCO)c(=O)[nH]c1=O`, the TGI in the assay with RPMI-8226 leukemia, in the assay on U251 CNS, with SF-268 CNS, in the assay on EKVX NSCLC, with NCI-H460 lung and with CAKI-1 renal was greater than 100 µM each time. Also, the TGI with A549 NSCLC and in the assay with KM12 colon was greater than 100 µM in each case.

With `CC1=CC(O)(c2ccc(-c3ccccc3Cl)cc2)OC1=O` (stereo not given), the TGI with RPMI-8226 leukemia, in the assay with HL-60(TB) leukemia, in the assay with U251 CNS, in the assay on SF-268 CNS, with EKVX NSCLC and with NCI-H460 lung was greater than 100 µM throughout. For the same compound, the TGI in the assay with CAKI-1 renal, in the assay with A549 NSCLC and in the assay with KM12 colon was greater than 100 µM each time.

As to `CC1(C)C2CCC(=O)C1CC2` (stereo not given), the TGI in the assay with RPMI-8226 leukemia, in the assay on HL-60(TB) leukemia, with U251 CNS, in the assay on SF-268 CNS, in the assay on NCI-H460 lung and with CAKI-1 renal was greater than 100 µM throughout. Also, the TGI in the assay on A549 NSCLC and in the assay with KM12 colon was greater than 100 µM each time.
